Source: ChEMBL document CHEMBL4483862, “Open-source discovery of chemical leads for next-generation chemoprotective antimalarials” (2018)

Tested on: Plasmodium berghei
Experiment: Luciferase/luciferin-expressing antifolate-resistant parasites were used to infect a culture of HepG2 cells that were pre-incubated with compounds. Infected hepatocytes emit light due to the luciferase reaction. Assay results are presented as the percent inhibition of light emission compared to control. […]
Assay type: functional
Settings: sporozoite; for IC90: read-out: LUCIFERASE INFECTION ASSAY - IC90

| Compound | IC90 | further results |
| --- | --- | --- |
| CNC(=O)c1nnsc1[S+]([O-])c1ccc(Cl)cc1 (configuration not stated) | > 10.9 µM | IC50 (FFLUC_HILL_SLOPE 1.33, FFLUC_R_SQUARED 0.248, HEPG2TOX_HILL_SLOPE 10.3, HEPG2TOX_R_SQUARED 0.738, read-out: LUCIFERASE INFECTION ASSAY - IC50): > 10.9 µM |
| Cc1cc(-c2ccccc2)[s+]c(-c2ccccc2)c1 | > 10 µM | IC50 (FFLUC_HILL_SLOPE 1.28, FFLUC_R_SQUARED 0.852, PBLUC_HILL_SLOPE 0.191, PBLUC_R_SQUARED 0.106, read-out: LUCIFERASE INFECTION ASSAY - IC50): > 10 µM |
| CSc1sc(C(=O)NNC(=O)Nc2ccccc2)c2c1C=CCC2 | > 9.18 µM | IC50 (FFLUC_HILL_SLOPE 1.34, FFLUC_R_SQUARED 0.714, read-out: LUCIFERASE INFECTION ASSAY - IC50): > 9.18 µM |
| COc1cc(/C=C(\C#N)c2nc3ccccc3[nH]2)ccc1OC(=O)c1cc2c(C)nn(-c3ccccc3)c2s1 | > 10 µM | IC50 (FFLUC_HILL_SLOPE 1.24, FFLUC_R_SQUARED 0.777, PBLUC_HILL_SLOPE 2.61, PBLUC_R_SQUARED 0.768, read-out: LUCIFERASE INFECTION ASSAY - IC50): 5.91 µM |
| Cc1c(-c2ccccc2)nc2ccccc2c1C(=O)Nc1ccc2c(c1)OCCO2 | 6.7 µM | IC50 (FFLUC_HILL_SLOPE 1.33, FFLUC_R_SQUARED 0.515, PBLUC_HILL_SLOPE 1.27, PBLUC_R_SQUARED 0.667, read-out: LUCIFERASE INFECTION ASSAY - IC50): 1.19 µM |
| CC(C)(C)c1ccc(CN2C(=O)CS/C2=C\C(=O)c2ccc(C(C)(C)C)cc2)cc1 | > 10 µM | IC50 (FFLUC_HILL_SLOPE 1.26, FFLUC_R_SQUARED 0.691, PBLUC_HILL_SLOPE 1.17, PBLUC_R_SQUARED 0.615, read-out: LUCIFERASE INFECTION ASSAY - IC50): 1.59 µM |
| Cc1onc(-c2c(Cl)cccc2Cl)c1-c1csc(-c2ccccc2Cl)n1 | 6.63 µM | IC50 (FFLUC_HILL_SLOPE 1.25, FFLUC_R_SQUARED 0.188, HEPG2TOX_HILL_SLOPE 2.28, HEPG2TOX_R_SQUARED 0.946, PBLUC_HILL_SLOPE 2.98, PBLUC_R_SQUARED 0.455, read-out: LUCIFERASE INFECTION ASSAY - IC50): 3.17 µM |
| Cc1ccc(-c2nc(CSc3nc(C)c(C)n3CC3CCCO3)co2)c(C)c1 (configuration not stated) | > 10 µM | IC50 (FFLUC_HILL_SLOPE 1.24, FFLUC_R_SQUARED 0.0904, HEPG2TOX_HILL_SLOPE 3.11, HEPG2TOX_R_SQUARED 0.82, read-out: LUCIFERASE INFECTION ASSAY - IC50): > 10 µM |
| Cc1cc(C2=NNC(=NC3CC3)SC2)c(C)n1-c1ccccn1 | 1.61 µM | IC50 (FFLUC_HILL_SLOPE 1.22, FFLUC_R_SQUARED 0.875, PBLUC_HILL_SLOPE 1.09, PBLUC_R_SQUARED 0.799, read-out: LUCIFERASE INFECTION ASSAY - IC50): 0.213 µM |
| FC(F)(F)c1cc(N=C(C/C=N/c2cc(C(F)(F)F)cc(C(F)(F)F)c2)c2ccc(Cl)cc2)cc(C(F)(F)F)c1 | 0.673 µM | IC50 (FFLUC_HILL_SLOPE 1.3, FFLUC_R_SQUARED 0.132, PBLUC_HILL_SLOPE 15.7, PBLUC_R_SQUARED 0.5, read-out: LUCIFERASE INFECTION ASSAY - IC50): 0.585 µM |
| N#CC(C#N)=C1C=C(c2ccc(O)cc2)Oc2ccccc21 | > 10 µM | IC50 (FFLUC_HILL_SLOPE 1.23, FFLUC_R_SQUARED 0.408, read-out: LUCIFERASE INFECTION ASSAY - IC50): > 10 µM |
| CCN(Cc1ccc2c(c1)OCO2)C(=O)c1oc2c(F)cccc2c1C | > 10 µM | IC50 (FFLUC_HILL_SLOPE 1.31, FFLUC_R_SQUARED 0.0559, read-out: LUCIFERASE INFECTION ASSAY - IC50): > 10 µM |
| CCOC(=O)c1c(C)noc1/C(C)=N/OC(=O)Nc1cccc(C(F)(F)F)c1 | 3.98 µM | IC50 (FFLUC_HILL_SLOPE 1.36, FFLUC_R_SQUARED 0.14, PBLUC_HILL_SLOPE 8.59, PBLUC_R_SQUARED 0.59, read-out: LUCIFERASE INFECTION ASSAY - IC50): 3.08 µM |
| Nc1c(C(=O)Nc2cccc(Cl)c2)sc2nc3c(c(-c4cccnc4)c12)CCC3 | > 7.84 µM | IC50 (FFLUC_HILL_SLOPE 1.24, FFLUC_R_SQUARED 0.605, PBLUC_HILL_SLOPE 2.61, PBLUC_R_SQUARED 0.023, read-out: LUCIFERASE INFECTION ASSAY - IC50): > 7.84 µM |
| O=C(OCCSc1ccc([N+](=O)[O-])c2nonc12)c1ccccc1 | > 9.56 µM | IC50 (FFLUC_HILL_SLOPE 1.36, FFLUC_R_SQUARED 0.568, HEPG2TOX_HILL_SLOPE 2.89, HEPG2TOX_R_SQUARED 0.849, PBLUC_HILL_SLOPE 0.85, PBLUC_R_SQUARED 0.48, read-out: LUCIFERASE INFECTION ASSAY - IC50): 5.19 µM |
| Cc1sc(-n2cccc2)c(C(=O)Nc2cccc(-c3nn[nH]n3)c2)c1C | > 10 µM | IC50 (FFLUC_HILL_SLOPE 1.33, FFLUC_R_SQUARED 0.778, read-out: LUCIFERASE INFECTION ASSAY - IC50): > 10 µM |

| Compound | IC90 | further results |
| --- | --- | --- |
| COc1ccc(S(=O)(=O)OCCSc2ccc([N+](=O)[O-])c3nonc23)cc1 | > 8.02 µM | IC50 (FFLUC_HILL_SLOPE 1.23, FFLUC_R_SQUARED 0.562, read-out: LUCIFERASE INFECTION ASSAY - IC50): > 8.02 µM |
| Nc1ccc(-c2cnn3c(N4CCOCC4)ccnc23)cc1 | 8.75 µM | IC50 (FFLUC_HILL_SLOPE 1.28, FFLUC_R_SQUARED 0.893, PBLUC_HILL_SLOPE 0.747, PBLUC_R_SQUARED 0.679, read-out: LUCIFERASE INFECTION ASSAY - IC50): 0.462 µM |
| Nc1nccnc1C(=O)Nc1ccc(C23CC4CC(CC(C4)C2)C3)cc1 | 9.45 µM | IC50 (FFLUC_HILL_SLOPE 1.35, FFLUC_R_SQUARED 0.9, PBLUC_HILL_SLOPE 1.78, PBLUC_R_SQUARED 0.606, read-out: LUCIFERASE INFECTION ASSAY - IC50): 2.75 µM |
| Cc1ccc(C)c(-n2c(SCCOc3ccccc3C)nnc2-c2ccccc2Cl)c1 | > 10 µM | IC50 (FFLUC_HILL_SLOPE 1.3, FFLUC_R_SQUARED 0.027, HEPG2TOX_HILL_SLOPE 7.63, HEPG2TOX_R_SQUARED 0.817, read-out: LUCIFERASE INFECTION ASSAY - IC50): > 10 µM |
| COC(=O)Cc1[nH]n(-c2nc3ccccc3s2)c(=O)c1C(C)=NCCO | 3.67 µM | IC50 (FFLUC_HILL_SLOPE 1.26, FFLUC_R_SQUARED 0.909, HEPG2TOX_HILL_SLOPE 2.15, HEPG2TOX_R_SQUARED 0.817, PBLUC_HILL_SLOPE 1.27, PBLUC_R_SQUARED 0.77, read-out: LUCIFERASE INFECTION ASSAY - IC50): 0.646 µM |
| Cc1ccc(NC(=O)c2cnn(C(C)(C)C)c2C)cc1F | 6.02 µM | IC50 (FFLUC_HILL_SLOPE 1.31, FFLUC_R_SQUARED 0.708, PBLUC_HILL_SLOPE 0.501, PBLUC_R_SQUARED 0.734, read-out: LUCIFERASE INFECTION ASSAY - IC50): 0.0753 µM |
| Cc1ccc(C(=O)Nc2nc3ccccc3[nH]2)cc1F | 4.06 µM | IC50 (FFLUC_HILL_SLOPE 1.36, FFLUC_R_SQUARED 0.795, PBLUC_HILL_SLOPE 11.8, PBLUC_R_SQUARED 0.45, read-out: LUCIFERASE INFECTION ASSAY - IC50): 3.37 µM |
| CCCc1ccc(C(=O)C(C)Sc2nnc(Cc3cccc4ccccc34)n2N)cc1 (configuration not stated) | > 10 µM | IC50 (FFLUC_HILL_SLOPE 1.29, FFLUC_R_SQUARED 0.471, read-out: LUCIFERASE INFECTION ASSAY - IC50): > 10 µM |
| CC(C)c1ccc(C(=O)Nc2ccccn2)cc1 | > 13.7 µM | IC50 (FFLUC_HILL_SLOPE 1.25, FFLUC_R_SQUARED 0.914, PBLUC_HILL_SLOPE 0.406, PBLUC_R_SQUARED 0.482, read-out: LUCIFERASE INFECTION ASSAY - IC50): 1.63 µM |
| O=c1c(Cl)c(Cl)cnn1-c1ccc(S(=O)(=O)Oc2ccccc2F)cc1 | 8.08 µM | IC50 (FFLUC_HILL_SLOPE 1.28, FFLUC_R_SQUARED 0.46, HEPG2TOX_HILL_SLOPE 12.5, HEPG2TOX_R_SQUARED 0.895, PBLUC_HILL_SLOPE 2.73, PBLUC_R_SQUARED 0.311, read-out: LUCIFERASE INFECTION ASSAY - IC50): 3.61 µM |
| COc1cc(Cl)c(C)cc1-n1c(Sc2ccc([N+](=O)[O-])c(C(F)(F)F)c2)nc2ccccc2c1=O | > 10 µM | IC50 (FFLUC_HILL_SLOPE 1.25, FFLUC_R_SQUARED 0.54, HEPG2TOX_HILL_SLOPE 0.668, HEPG2TOX_R_SQUARED 0.6, PBLUC_HILL_SLOPE 3.18, PBLUC_R_SQUARED 0.355, read-out: LUCIFERASE INFECTION ASSAY - IC50): 6.33 µM |
| Cn1c(Sc2ncc([N+](=O)[O-])s2)n[nH]c1=O | 7.26 µM | IC50 (FFLUC_HILL_SLOPE 1.35, FFLUC_R_SQUARED 0.48, HEPG2TOX_HILL_SLOPE 8.97, HEPG2TOX_R_SQUARED 0.707, PBLUC_HILL_SLOPE 6.36, PBLUC_R_SQUARED 0.781, read-out: LUCIFERASE INFECTION ASSAY - IC50): 5.14 µM |
| COc1cccc(-c2nccc3n[nH]c(-c4cccc(OC(F)(F)F)c4)c23)c1 | > 10 µM | IC50 (FFLUC_HILL_SLOPE 1.32, FFLUC_R_SQUARED 0.557, read-out: LUCIFERASE INFECTION ASSAY - IC50): > 10 µM |
| OC1(c2ccc(OC(F)F)cc2)CN(c2ccc(Br)cc2)C2=[N+]1c1ccccc1CC2 (configuration not stated) | > 10 µM | IC50 (FFLUC_HILL_SLOPE 1.23, FFLUC_R_SQUARED 0.743, PBLUC_HILL_SLOPE 152, PBLUC_R_SQUARED 0.276, read-out: LUCIFERASE INFECTION ASSAY - IC50): 9.94 µM |
| Cc1c(C)c(C)c(C(=O)C2CCN(C(=O)c3ccc([N+](=O)[O-])o3)CC2)c(C)c1C | > 8.28 µM | IC50 (FFLUC_HILL_SLOPE 1.26, FFLUC_R_SQUARED 0.398, read-out: LUCIFERASE INFECTION ASSAY - IC50): > 8.28 µM |
